Measured values taken from patent US6197797A, “Cyanoguanidines as cell proliferation inhibitors” (Leo Pharmaceutical Products Ltd. A/S (L.o slashed.vens …, priority 1997, dated 2001).

Assays:
[1] = system: human breast cancer (MCF-7); assay: Inhibition of tumour cell proliferation in vitro ([3H]thymidine incorporation), MCF-7; assay type: cell-based; conditions: MCF7, MCF-7, 24 hours, read-out: The median inhibition concentration (IC50, nM) of MCF-7
Protocol: (§1) The inhibition of tumour cell proliferation was studied using different types of human cancer cell lines. The cell lines under investigation were small cell lung carcinoma (NYH), non small cell lung carcinoma (NCI-H460), and breast cancer (MCF-7) using the following general procedure.
(§2) The cells were cultured in vitro for 24 hours in the presence of the compound under investigation. DNA synthesis was measured by incorporation of [3H]thymidine, and the median inhibitory concentrations (IC50) of the compounds were calculated.

[2] = system: Yoshida sarcoma tumour-bearing rats; assay: Prolongation of survival time of tumour-bearing rats; assay type: in vivo, LEW/Mol inbred female rats
Protocol: The prolongation of survival time of tumour-bearing rats was studied in LEW/Mol inbred female rats inoculated with Yoshida sarcoma cells in a number of 2×10^7 cells. Tumour-bearing rats (6 animals per group) were dosed orally once daily from day 3 after the transfer of tumour cells and until death or for a maximum of 21 days or until the body weights had increased by 10% as a consequence of tumour proliferation. The mean survival day of treated versus non-treated rats is used to calculate ILS (Increased Life Span). ILS=((mean treated/mean control)-1)*100%.

[3] = system: human non small cell lung carcinoma (NCI-H460); assay: Inhibition of tumour cell proliferation in vitro ([3H]thymidine incorporation), NCI-H460; assay type: cell-based; conditions: NCI-H460, 24 hours, read-out: The median inhibition concentration (IC50, nM) of NCI-H460
Protocol: as §1, §2

[4] = system: human small cell lung carcinoma (NYH); assay: Inhibition of tumour cell proliferation in vitro ([3H]thymidine incorporation), NYH; assay type: cell-based; conditions: 24 hours, read-out: The median inhibition concentration (IC50, nM) of NYH
Protocol: as §1, §2

[5] = 20 mg/kg p.o. once daily from day 3, ILS=((mean treated/mean control)-1)*100%

| Structure (SMILES) | IC50 [1] | IC50 [3] | IC50 [4] | Increased life span (ILS) % [2, 5] | Increased life span (ILS) % ([2]; 50 mg/kg p.o. once daily from day 3, ILS=((mean treated/mean control)-1)*100%) |
| --- | --- | --- | --- | --- | --- |
| N#CNC(=Nc1ccncc1)NCCCCCCCCCc1ccccc1 [Example 5, N-Cyano-N'-(9-phenylnonyl)-N"-4-pyridylguanidine] | 29 nM | 5.8 nM | 5.3 nM | – | – |
| N#CN=C(NCC/C=C/C=C/c1ccccc1)Nc1ccncc1 [Example 12, (E,E)-N-Cyano-N'-(6-phenylhex-3,5-dienyl)-N"-4-pyridylguanidine] | 138 nM | 49 nM | 5.5 nM | – | – |
| CCCCCCCCCCCCNC(=Nc1ccncc1)NC#N [Example 18, N-Cyano-N'-dodecyl-N"-4-pyridylguanidine] | 19 nM | 61 nM | 5 nM | – | – |
| N#CNC(=Nc1ccncc1)NCCCCCOc1ccccc1 [prior art B, N-Cyano-N'-(5-phenoxypentyl)-N"-4-pyridylguanidine, reference compound] | – | – | – | – | 35% |

Further molecules by falling IC50 [1], results first:

| IC50 [1] | IC50 [3] | IC50 [4] | Structure (SMILES) | Increased life span (ILS) % [2, 5] | Increased life span (ILS) % ([2]; 50 mg/kg p.o. once daily from day 3, ILS=((mean treated/mean control)-1)*100%) |
| --- | --- | --- | --- | --- | --- |
| 74 nM | 78 nM | 6.1 nM | N#CNC(=Nc1ccncc1)NCCCCC#Cc1ccccc1 [Example 14, N-Cyano-N'-(6-phenylhex-5-ynyl)-N"-4-pyridylguanidine] | – | – |
| 54 nM | 135 nM | 7.3 nM | N#CN=C(NCCCC/C=C\c1ccccc1)Nc1ccncc1 [Example 10, (Z)-N-Cyano-N'-(6-phenylhex-5-enyl)-N"-4-pyridylguanidine] | 35% | – |
| 40 nM | – | – | N#CNC(=Nc1ccncc1)NCCCCCc1ccccc1 [Example 1, N-Cyano-N'-(5-phenylpentyl)N"-4-pyridylguanidine] | 49% | – |
